Test results from ChEMBL document CHEMBL1149100, “New 2,4-diamino-5-(2',5'-substituted benzyl)pyrimidines as potential drugs against opportunistic infections of AIDS and other immune disorders. Synthesis and species-dependent antifolate activity” (J Med Chem, 2004).
Values after ≈ are worked out from the molar mass of the structure shown.

Experiments:
[1] = tested on: Mycobacterium avium; experiment: Minimum inhibitory concentration required against Mycobacterium avium isolate from patient number MAC101; assay type: functional
[2] = tested on: Mycobacterium avium; experiment: Minimum inhibitory concentration required against Mycobacterium avium isolate from patient number MAC16; assay type: functional
[3] = tested on: Mycobacterium avium; experiment: Minimum inhibitory concentration required against Mycobacterium avium isolate from patient number MAC108; assay type: functional
[4] = tested on: Mycobacterium avium; experiment: Minimum inhibitory concentration required against Mycobacterium avium isolate from patient number MAC100; assay type: functional
[5] = tested on: Mycobacterium avium; experiment: Minimum inhibitory concentration required against Mycobacterium avium isolate from patient number MAC109; assay type: functional
[6] = tested on: Mycobacterium avium; experiment: Minimum inhibitory concentration required against Mycobacterium avium isolate from patient number MAC116; assay type: functional
[7] = biological target: T1, Dihydrofolate reductase (Rattus norvegicus, UniProt Q920D2)
T1 sequence (Q920D2 whole entry): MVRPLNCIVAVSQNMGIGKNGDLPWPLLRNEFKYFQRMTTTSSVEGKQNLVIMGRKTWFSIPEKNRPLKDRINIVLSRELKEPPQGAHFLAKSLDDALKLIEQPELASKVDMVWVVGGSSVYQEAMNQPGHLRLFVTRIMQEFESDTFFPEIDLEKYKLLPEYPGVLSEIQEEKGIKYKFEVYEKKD
Description: Inhibitory concentration against dihydrofolate reductase of rat liver

[8] = biological target: T2, Dihydrofolate reductase (Pneumocystis carinii, UniProt P16184)
T2 sequence (P16184 whole entry): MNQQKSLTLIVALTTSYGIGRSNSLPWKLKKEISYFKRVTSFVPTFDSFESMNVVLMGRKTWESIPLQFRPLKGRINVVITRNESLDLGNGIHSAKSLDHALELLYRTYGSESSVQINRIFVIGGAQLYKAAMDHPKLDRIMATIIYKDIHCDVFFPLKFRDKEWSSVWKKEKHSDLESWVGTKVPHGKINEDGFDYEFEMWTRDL
Description: Inhibitory concentration against dihydrofolate reductace enzyme of Pneumocystis carinii

[9] = biological target: T3, Dihydrofolate reductase (Mycobacterium avium, UniProt O30463)
T3 sequence (O30463 whole entry): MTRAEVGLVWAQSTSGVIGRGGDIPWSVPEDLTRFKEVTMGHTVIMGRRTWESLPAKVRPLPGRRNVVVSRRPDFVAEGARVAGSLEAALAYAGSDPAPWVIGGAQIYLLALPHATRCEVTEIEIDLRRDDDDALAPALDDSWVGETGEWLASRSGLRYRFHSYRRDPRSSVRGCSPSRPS
Description: Inhibitory concentration against dihydrofolate reductase of Mycobacterium avium

[10] = biological target: T4, Bifunctional dihydrofolate reductase-thymidylate synthase (Toxoplasma gondii, UniProt Q07422)
T4 sequence (Q07422 whole entry): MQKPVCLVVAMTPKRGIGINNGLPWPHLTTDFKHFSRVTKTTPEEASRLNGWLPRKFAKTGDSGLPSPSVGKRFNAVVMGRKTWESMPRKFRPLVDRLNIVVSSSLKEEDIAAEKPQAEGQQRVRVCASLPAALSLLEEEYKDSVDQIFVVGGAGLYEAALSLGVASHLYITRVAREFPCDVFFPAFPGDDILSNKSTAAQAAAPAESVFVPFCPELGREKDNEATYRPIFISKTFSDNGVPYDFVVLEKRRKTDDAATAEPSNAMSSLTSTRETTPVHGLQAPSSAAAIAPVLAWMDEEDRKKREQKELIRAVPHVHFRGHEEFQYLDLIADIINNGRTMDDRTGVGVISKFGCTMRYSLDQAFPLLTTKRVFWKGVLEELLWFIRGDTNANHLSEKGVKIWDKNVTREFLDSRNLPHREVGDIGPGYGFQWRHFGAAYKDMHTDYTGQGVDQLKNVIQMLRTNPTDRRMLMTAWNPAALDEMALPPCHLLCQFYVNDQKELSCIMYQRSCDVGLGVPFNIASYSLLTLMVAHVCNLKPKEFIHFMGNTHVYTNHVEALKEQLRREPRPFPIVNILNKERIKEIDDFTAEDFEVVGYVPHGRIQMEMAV

[11] = tested on: Mycobacterium avium; experiment: Minimum inhibitory concentration required for 90 percent inhibition of Mycobacterium avium isolate; assay type: functional
[12] = tested on: Mycobacterium avium; experiment: Minimum inhibitory concentration required for 50 percent inhibition of Mycobacterium avium isolate; assay type: functional
[13] = tested on: Mycobacterium avium; experiment: Concentration of compound required against Mycobacterium avium; Range is 2-16 ug/mL; assay type: functional, organism-based
[14] = tested on: Mycobacterium avium; experiment: Concentration of compound required against Mycobacterium aviumRange is 2-32; assay type: functional, organism-based
[15] = tested on: Mycobacterium avium; experiment: Concentration of compound required against Mycobacterium avium; Range is 4-32; assay type: functional, organism-based
[16] = tested on: Mycobacterium avium; experiment: microbe, parasite or virus in culture
[17] = tested on: Mycobacterium avium; experiment: Concentration of compound required against Mycobacterium avium; Range is 2-32; assay type: functional, organism-based

Structure (SMILES) | MIC [1] [µg/mL] | MIC [2] [µg/mL] | MIC [3] [µg/mL] | MIC [4] [µg/mL] | MIC [5] [µg/mL] | IC50 [9] [nM] | MIC90 [11] [µg/mL] | MIC50 [12] [µg/mL] | also measured
CCCCCCOc1ccc(OC)c(Cc2cnc(N)nc2N)c1 | 32 (≈ 96.8 µM) | 32 (≈ 96.8 µM) | 32 (≈ 96.8 µM) | 32 (≈ 96.8 µM) | 32 (≈ 96.8 µM) |  |  |  | 
COc1ccc(OCc2cccc(C(=O)O)c2)cc1Cc1cnc(N)nc1N | > 32 | > 32 | > 32 | > 32 | > 32 |  |  |  | 
COc1ccc(C#Cc2ccccc2C(=O)O)cc1Cc1cnc(N)nc1N | > 64 |  | > 64 | > 64 | > 64 | 100 |  |  | MIC [6]: > 64 µg/mL; IC50 [7]: 25000 nM; IC50 [8]: 4100 nM; IC50 [10]: 1900 nM
CCCCCCCOc1ccc(OC)c(Cc2cnc(N)nc2N)c1 | 4 (≈ 11.6 µM) | 8 (≈ 23.2 µM) | 8 (≈ 23.2 µM) | 8 (≈ 23.2 µM) | 8 (≈ 23.2 µM) |  | 8 (≈ 23.2 µM) | 8 (≈ 23.2 µM) | Concentration [13]: 16 µg/mL
COc1ccc(OCCCCCCC(=O)O)cc1Cc1cnc(N)nc1N | 8 (≈ 21.4 µM) | 16 (≈ 42.7 µM) | > 32 | 16 (≈ 42.7 µM) | 8 (≈ 21.4 µM) |  | 32 (≈ 85.5 µM) | 4 (≈ 10.7 µM) | Concentration [14]: 32 µg/mL
COc1ccc(C#CCCCC(=O)O)cc1Cc1cnc(N)nc1N | 4 (≈ 11.8 µM) | 8 (≈ 23.5 µM) | 32 (≈ 94 µM) | 8 (≈ 23.5 µM) | 16 (≈ 47 µM) |  | 16 (≈ 47 µM) | 8 (≈ 23.5 µM) | Concentration [15]: 32 µg/mL
COc1ccc(OCCCCC(=O)O)cc1Cc1cnc(N)nc1N | 16 (≈ 46.2 µM) | 16 (≈ 46.2 µM) | > 32 | 16 (≈ 46.2 µM) | 16 (≈ 46.2 µM) |  | 32 (≈ 92.4 µM) | 16 (≈ 46.2 µM) | 
Cc1ccc(Cl)cc1Cc1cnc2nc(N)nc(N)c2c1C |  |  |  |  |  | 0.19 |  |  | 
COc1cc(Cc2cnc(N)nc2N)cc(OC)c1OC [TRIMETHOPRIM] |  |  |  |  |  |  |  |  | MIC [16]: > 64 µg/mL
COc1ccc(C#CCCC(=O)O)cc1Cc1cnc(N)nc1N | 8 (≈ 24.5 µM) | 16 (≈ 49 µM) | 16 (≈ 49 µM) | 8 (≈ 24.5 µM) | 16 (≈ 49 µM) |  | 16 (≈ 49 µM) | 8 (≈ 24.5 µM) | Concentration [15]: 32 µg/mL
COc1ccc(C#CCOc2cccc(C(=O)O)c2)cc1Cc1cnc(N)nc1N | > 32 | > 32 | > 32 | > 32 | > 32 |  |  |  | 
COc1ccc(CCc2ccc(C(=O)O)cc2)cc1Cc1cnc(N)nc1N |  |  |  |  |  | 25 |  |  | IC50 [7]: 13000 nM; IC50 [8]: 7100 nM; IC50 [10]: 1500 nM
COc1ccc(OCc2ccc(C(=O)O)cc2)cc1Cc1cnc(N)nc1N | > 32 | > 32 | > 32 | > 32 | > 32 |  |  |  | 
COc1ccc(OCCCC(=O)O)cc1Cc1cnc(N)nc1N | 16 (≈ 48.1 µM) | 32 (≈ 96.3 µM) | 16 (≈ 48.1 µM) | 16 (≈ 48.1 µM) | 32 (≈ 96.3 µM) |  |  |  | 
COc1ccc(C#Cc2cccc(C(=O)O)c2)cc1Cc1cnc(N)nc1N | > 64 | > 64 | > 64 | > 64 | > 64 | 1.5 |  |  | IC50 [7]: 650 nM; IC50 [8]: 23 nM; IC50 [10]: 5.5 nM
COc1ccc(/C=C/COc2ccccc2C(=O)O)cc1Cc1cnc(N)nc1N |  |  |  |  |  | 380 |  |  | IC50 [7]: 6400 nM; IC50 [8]: 8600 nM; IC50 [10]: 2500 nM
COc1ccc(OCCCCCC(=O)O)cc1Cc1cnc(N)nc1N | 8 (≈ 22.2 µM) | 8 (≈ 22.2 µM) | 32 (≈ 88.8 µM) | 16 (≈ 44.4 µM) | 8 (≈ 22.2 µM) |  | 32 (≈ 88.8 µM) | 4 (≈ 11.1 µM) | Concentration [15]: 32 µg/mL
COc1ccc(CCCCCC(=O)O)cc1Cc1cnc(N)nc1N | 16 (≈ 46.5 µM) | 32 (≈ 92.9 µM) | > 32 | 32 (≈ 92.9 µM) | 32 (≈ 92.9 µM) |  |  |  | 
COc1ccc(C#Cc2ccc(C(=O)O)cc2)cc1Cc1cnc(N)nc1N | > 64 | > 64 | > 64 | > 64 | > 64 | 3.7 |  |  | IC50 [7]: 8200 nM; IC50 [8]: 1300 nM; IC50 [10]: 340 nM
COc1ccc(OCCCCCCCC(=O)O)cc1Cc1cnc(N)nc1N | 4 (≈ 10.3 µM) | 2 (≈ 5.15 µM) | 32 (≈ 82.4 µM) | 8 (≈ 20.6 µM) | 2 (≈ 5.15 µM) |  | 8 (≈ 20.6 µM) | 4 (≈ 10.3 µM) | Concentration [17]: 32 µg/mL
COc1ccc(CCCCCCC(=O)O)cc1Cc1cnc(N)nc1N | 32 (≈ 89.3 µM) | 16 (≈ 44.6 µM) | > 32 | > 32 | 32 (≈ 89.3 µM) |  |  |  | 
COc1ccc(C#CCCCCC(=O)O)cc1Cc1cnc(N)nc1N | 2 (≈ 5.64 µM) | 2 (≈ 5.64 µM) | > 32 | 4 (≈ 11.3 µM) | 4 (≈ 11.3 µM) |  | 16 (≈ 45.1 µM) | 8 (≈ 22.6 µM) | Concentration [17]: 32 µg/mL
COc1ccc(CCCOc2ccccc2C(=O)O)cc1Cc1cnc(N)nc1N |  |  |  |  |  | 310 |  |  | IC50 [7]: 25000 nM; IC50 [8]: 7800 nM; IC50 [10]: 710 nM
COc1ccc(CCCOc2cccc(C(=O)O)c2)cc1Cc1cnc(N)nc1N |  |  |  |  |  | 25 |  |  | IC50 [7]: 4000 nM; IC50 [8]: 1100 nM; IC50 [10]: 210 nM
COc1ccc(OCCCCCCCCC(=O)O)cc1Cc1cnc(N)nc1N | 2 (≈ 4.97 µM) | 2 (≈ 4.97 µM) | > 32 | 8 (≈ 19.9 µM) | 4 (≈ 9.94 µM) |  | 8 (≈ 19.9 µM) | 4 (≈ 9.94 µM) | Concentration [13]: 16 µg/mL
COc1ccc(C#CCOc2ccccc2C(=O)O)cc1Cc1cnc(N)nc1N | > 32 | > 32 | > 32 | > 32 | > 32 |  |  |  | 
COc1ccc(CCCCC(=O)O)cc1Cc1cnc(N)nc1N | > 32 |  | > 32 | > 32 | > 32 |  |  |  | MIC [6]: > 32 µg/mL
COc1cc(Cc2cnc3nc(N)nc(N)c3c2C)cc(OC)c1 |  |  |  |  |  | 0.64 |  |  | 
